In patent US20220402948A1, “EGFR INHIBITOR, COMPOSITION AND PREPARATION METHOD THEREFOR” (BETTA PHARMACEUTICALS CO., LTD., priority 2019, published 2022):
Where two headings read alike, the source gives them in different places.

Tests used:
IGF1R = IGF1R (Homo sapiens, UniProt P08069); assay: IGF1R kinase test (mobility variation analysis, Caliper EZ Reader); format: biochemical; settings: kinase enzymatic activity, Table 1; read-out: EGFR IGF1R IC50
Description: (§1) Mobility variation analysis was performed to determine the affinity of the compound for EGFRΔ19del/T790M/C797S, EGFR WT and IGF1R. The enzymatic reaction scheme is as follows:
(§2) 1. Prepare 1*kinase buffer as follows.
2. Preparation of compound concentration gradient: The test compound was tested with an initial concentration of 3000 nM (300 nM for some triple mutations and 100 nM for others), diluted in a 384 source plate (96-well plate for comparative compound 1 and compounds 1-38) to a 100% DMSO solution with 100-fold final concentration, and the compound is 3-fold diluted with Precision to 10 concentrations. A dispenser Echo 550 was used to transfer 250 nL 100-fold final concentration of the compound to the target plate OptiPlate-384F.
3. Prepare 2.5-fold final concentration (5-fold for comparative compound 1 and compounds 1-38) of kinase solution with 1×Kinase buffer. Following steps should also be carried out for comparative compound 1 and compounds 1-38: Add each prepared intermediate dilution compounds to the compound wells of 384-well plate respectively, and test the repeated wells of each concentration; add 5% DMSO of 5 plates into the negative control well and the positive control well respectively. Prepare 2.5-fold final concentration of kinase solution with 1×Kinase buffer.
(§3) 4. Add 10 μL of 2.5-fold final concentration of kinase solution to the compound well and the positive control well; add 10 μL of 1×Kinase buffer to the negative control well.
(§4) 5. Centrifuge at 1000 rpm for 30 s, shake the reaction plate for well mixing, and then incubate at room temperature for 10 minutes.
(§5) 6. Prepare a mixture of ATP and Kinase substrate at 5/3-fold final concentration with 1×Kinase buffer.
7. Add 15 μL mixture of 5/3-fold (2.5-fold for comparative compound 1 and compounds 1-38) final concentration of ATP and substrate to start reaction.
(§6) 8. Centrifuge the 384-well plate at 1000 rpm for 30 s, shake it well and then incubate it at room temperature for corresponding time.
(§7) 9. Add 30 μL of stop detection solution to stop the kinase reaction, centrifuge at 1000 rpm for 30 s, and shake it well.
(§8) 10. Read conversion rate with Caliper EZ Reader.
(§9) % Inhibition=((Conversion%_max−Conversion%_sample)/(Conversion%_max−Conversion%_min))*100
(§10) Wherein: Conversion%_sample is the sample conversion rate reading; Conversion%_min: Mean value of negative control wells, representing the conversion rate reading of wells without enzymatic activity; Conversion%_max: Mean value of positive control wells, representing the conversion rate reading of wells without compound inhibition.
(§11) The dose-effect curve was fitted with concentration log value as X-axis and percentage inhibition rate as Y-axis. GraphPad Prism 5 analysis software was used for fitting Log (inhibitor) vs. response—Variable slope with the dose-effect curve to obtain IC50 value of enzymatic activity for each compound.
(§12) The calculation formula is as Y-Bottom+(Top-Bottom)/(1+10^((Log IC50−X)*HillSlope)).

[1] = molecular target: Ba/F3 cells with EGFR Δ19del/T790M/C797S mutation gene stably overexpressed (Homo sapiens, UniProt P00533, T790M/C797S, cells depend on it, form not given); assay: Ba/F3-Δ19del/T790M/C797S cell proliferation assay (CellTiter Glo, 72 hours); format: cell-based; settings: Table 2, read-out: EGFR Δ19del/T790M/C797S IC50
Ba/F3 cells with EGFR Δ19del/T790M/C797S mutation gene stably overexpressed, sequence (P00533 with tags, fused parts or gaps DEL746-750/T790M/C797S, form open): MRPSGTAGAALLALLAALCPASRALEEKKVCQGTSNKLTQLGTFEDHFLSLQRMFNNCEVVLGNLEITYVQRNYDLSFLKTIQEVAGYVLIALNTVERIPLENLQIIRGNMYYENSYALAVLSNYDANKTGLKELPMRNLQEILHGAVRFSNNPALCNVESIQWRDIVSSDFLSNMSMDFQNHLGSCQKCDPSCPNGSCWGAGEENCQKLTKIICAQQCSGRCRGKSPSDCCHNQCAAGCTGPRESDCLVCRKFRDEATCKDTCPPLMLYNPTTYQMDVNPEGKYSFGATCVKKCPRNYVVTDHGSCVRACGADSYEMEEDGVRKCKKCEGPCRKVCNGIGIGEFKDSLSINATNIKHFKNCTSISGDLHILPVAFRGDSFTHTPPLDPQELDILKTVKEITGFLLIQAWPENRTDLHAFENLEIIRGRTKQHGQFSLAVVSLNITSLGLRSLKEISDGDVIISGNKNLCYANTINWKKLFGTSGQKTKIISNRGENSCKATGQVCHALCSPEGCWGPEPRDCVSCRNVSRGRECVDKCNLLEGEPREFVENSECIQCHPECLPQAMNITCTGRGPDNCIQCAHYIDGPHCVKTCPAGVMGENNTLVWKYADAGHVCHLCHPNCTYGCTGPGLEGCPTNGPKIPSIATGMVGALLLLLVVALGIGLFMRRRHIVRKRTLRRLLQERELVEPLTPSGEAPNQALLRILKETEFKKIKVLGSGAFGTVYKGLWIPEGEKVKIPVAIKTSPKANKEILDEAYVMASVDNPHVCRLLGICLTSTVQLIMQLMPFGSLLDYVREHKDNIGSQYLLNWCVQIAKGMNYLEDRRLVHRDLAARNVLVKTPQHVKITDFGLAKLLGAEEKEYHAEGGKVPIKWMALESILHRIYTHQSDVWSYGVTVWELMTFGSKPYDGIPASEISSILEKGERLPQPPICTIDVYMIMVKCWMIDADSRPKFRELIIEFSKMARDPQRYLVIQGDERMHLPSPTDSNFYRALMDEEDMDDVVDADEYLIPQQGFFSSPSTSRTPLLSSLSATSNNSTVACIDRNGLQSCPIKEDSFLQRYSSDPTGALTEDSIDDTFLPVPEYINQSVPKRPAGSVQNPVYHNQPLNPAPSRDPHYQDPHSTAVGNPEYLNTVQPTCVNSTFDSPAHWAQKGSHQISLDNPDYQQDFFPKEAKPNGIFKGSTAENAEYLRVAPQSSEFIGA
Description: (§13) Cell line: Ba/F3 cells with EGFR Δ19del/T790M/C797S mutation gene stably overexpressed named Ba/F3-Δ119del/T90M/C797S, and A431 and Ba/F3-EGFR wild-type cell line.
(§14) a) Centrifuge the growth cells in logarithmic phase at 1000 rpm for 5 minutes, resuspend the cells in culture medium, and then count the cells;
(§15) b) Inoculate the cells into a 96-well cell culture plate with a density of 2000 cells/well;
(§16) b) Incubate cells in an incubator for another 72 hours.
(§17) a) Take out the 96-well cell culture plate and add 50 μl CTG reagent (CellTiter Glo kit, promega, Cat #G7573);
(§18) b) Shake the plate for 2 minutes and let cool at room temperature for 10 minutes;
(§19) c) Read luminous signal value with PerkinElmer reader,
(§20) Analysis of Experimental Data
(§21) The data were analyzed by GraphPad Prism 6.0 software to obtain the fitting curve of compound activity.
(§22) Y=Min+(Max−Min)/(1+10^((Log IC50−X)*slope));
(§23) X: Logarithm of compound concentration; Y: luminous signal.

EGFRΔ19del/T790M/C797S = EGFRΔ19del/T790M/C797S (Homo sapiens, UniProt P00533, T790M/C797S, form not given); assay: EGFR Δ19del/T790M/C797S kinase test (mobility variation analysis, Caliper EZ Reader); format: biochemical; settings: kinase enzymatic activity, Table 1
EGFRΔ19del/T790M/C797S, sequence (P00533 with tags, fused parts or gaps DEL746-750/T790M/C797S, form open): as above
Description: as §1, §2
(§24) 3. […] Prepare 2.5-fold final concentration of kinase solution with 1×Kinase buffer.
as §3, §4, §5, §6, §7, §8, §9, §10, §11, §12

EGFR WT = EGFR WT (Homo sapiens, UniProt P00533); assay: EGFR WT kinase test (mobility variation analysis, Caliper EZ Reader); format: biochemical; settings: kinase enzymatic activity, Table 1
EGFR WT, sequence (P00533 25-1210): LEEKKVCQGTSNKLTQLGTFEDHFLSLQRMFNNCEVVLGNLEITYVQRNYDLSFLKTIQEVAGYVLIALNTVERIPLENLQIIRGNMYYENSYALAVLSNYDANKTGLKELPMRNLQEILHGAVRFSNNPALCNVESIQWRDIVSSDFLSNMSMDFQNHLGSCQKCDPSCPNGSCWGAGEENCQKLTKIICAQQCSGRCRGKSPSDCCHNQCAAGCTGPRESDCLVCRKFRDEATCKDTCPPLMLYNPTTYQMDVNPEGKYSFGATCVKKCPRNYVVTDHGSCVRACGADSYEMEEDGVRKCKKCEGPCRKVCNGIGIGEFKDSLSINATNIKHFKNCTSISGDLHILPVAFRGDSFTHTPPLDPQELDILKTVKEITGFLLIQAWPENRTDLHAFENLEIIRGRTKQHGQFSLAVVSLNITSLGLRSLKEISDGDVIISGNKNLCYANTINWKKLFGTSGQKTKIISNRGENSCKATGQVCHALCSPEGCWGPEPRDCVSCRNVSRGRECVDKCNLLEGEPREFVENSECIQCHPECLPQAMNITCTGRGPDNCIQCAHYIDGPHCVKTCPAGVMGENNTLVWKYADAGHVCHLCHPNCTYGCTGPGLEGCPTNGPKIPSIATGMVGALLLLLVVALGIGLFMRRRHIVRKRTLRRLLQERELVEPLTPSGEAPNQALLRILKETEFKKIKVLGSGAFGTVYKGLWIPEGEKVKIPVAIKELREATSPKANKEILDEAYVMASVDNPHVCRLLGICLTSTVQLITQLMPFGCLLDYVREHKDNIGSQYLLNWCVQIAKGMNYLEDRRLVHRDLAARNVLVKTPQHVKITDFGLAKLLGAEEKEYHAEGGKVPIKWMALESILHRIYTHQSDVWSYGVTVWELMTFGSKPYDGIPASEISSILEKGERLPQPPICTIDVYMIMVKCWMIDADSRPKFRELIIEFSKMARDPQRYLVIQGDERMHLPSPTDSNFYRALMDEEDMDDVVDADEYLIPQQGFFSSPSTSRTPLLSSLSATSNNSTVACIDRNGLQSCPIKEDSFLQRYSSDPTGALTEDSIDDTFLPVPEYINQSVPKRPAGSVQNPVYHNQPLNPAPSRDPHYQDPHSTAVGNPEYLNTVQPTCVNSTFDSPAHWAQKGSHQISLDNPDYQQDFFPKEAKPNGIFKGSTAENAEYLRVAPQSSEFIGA
Description: as §1, §2, §24, §3, §4, §5, §6, §7, §8, §9, §10, §11, §12

A431 = A431 cell proliferation assay (CellTiter Glo, 72 hours); format: cell-based; settings: cell proliferation, A431, 72 hours, Table 2, read-out: A431 IC50
Description: as §13
RPMI 1640 and 10% FBS and 1% PS; DMEM and 10% FBS and 1% PS.
a) Dilute the test compound (20 mM stock solution) to 10 mM with 100% DMSO as the starting concentration, and then serially dilute 3 times with a “9+0” concentration in 96-well dilution plate (Cat #P-05525, Labcyte);
b) Dilute compound solution thereof to 1:100 (1:20 for comparative compound 1 and compounds 1-38) in medium to prepare 10-fold working solution;
as §14, §15
a) Compounds prepared at step 2 were added to cell plate with 15 μl per well, the final concentrations were 1000, 333, 111.1, 37, 12.3, 4.1, 1.4, 0.5, 0.2 and 0 nM, and the final concentration of DMSO was 0.1%. The blank control well was a culture medium (0.1% DMSO) (the blank control well of comparative compound 1 and compounds 1-38 was a culture medium (0.5% DMSO).
as §16, §17, §18, §19, §20, §21
Fitting compound IC50 from nonlinear regression equation:
as §22, §23

IGF1R, sequence (P08069 31-1367, species assumed): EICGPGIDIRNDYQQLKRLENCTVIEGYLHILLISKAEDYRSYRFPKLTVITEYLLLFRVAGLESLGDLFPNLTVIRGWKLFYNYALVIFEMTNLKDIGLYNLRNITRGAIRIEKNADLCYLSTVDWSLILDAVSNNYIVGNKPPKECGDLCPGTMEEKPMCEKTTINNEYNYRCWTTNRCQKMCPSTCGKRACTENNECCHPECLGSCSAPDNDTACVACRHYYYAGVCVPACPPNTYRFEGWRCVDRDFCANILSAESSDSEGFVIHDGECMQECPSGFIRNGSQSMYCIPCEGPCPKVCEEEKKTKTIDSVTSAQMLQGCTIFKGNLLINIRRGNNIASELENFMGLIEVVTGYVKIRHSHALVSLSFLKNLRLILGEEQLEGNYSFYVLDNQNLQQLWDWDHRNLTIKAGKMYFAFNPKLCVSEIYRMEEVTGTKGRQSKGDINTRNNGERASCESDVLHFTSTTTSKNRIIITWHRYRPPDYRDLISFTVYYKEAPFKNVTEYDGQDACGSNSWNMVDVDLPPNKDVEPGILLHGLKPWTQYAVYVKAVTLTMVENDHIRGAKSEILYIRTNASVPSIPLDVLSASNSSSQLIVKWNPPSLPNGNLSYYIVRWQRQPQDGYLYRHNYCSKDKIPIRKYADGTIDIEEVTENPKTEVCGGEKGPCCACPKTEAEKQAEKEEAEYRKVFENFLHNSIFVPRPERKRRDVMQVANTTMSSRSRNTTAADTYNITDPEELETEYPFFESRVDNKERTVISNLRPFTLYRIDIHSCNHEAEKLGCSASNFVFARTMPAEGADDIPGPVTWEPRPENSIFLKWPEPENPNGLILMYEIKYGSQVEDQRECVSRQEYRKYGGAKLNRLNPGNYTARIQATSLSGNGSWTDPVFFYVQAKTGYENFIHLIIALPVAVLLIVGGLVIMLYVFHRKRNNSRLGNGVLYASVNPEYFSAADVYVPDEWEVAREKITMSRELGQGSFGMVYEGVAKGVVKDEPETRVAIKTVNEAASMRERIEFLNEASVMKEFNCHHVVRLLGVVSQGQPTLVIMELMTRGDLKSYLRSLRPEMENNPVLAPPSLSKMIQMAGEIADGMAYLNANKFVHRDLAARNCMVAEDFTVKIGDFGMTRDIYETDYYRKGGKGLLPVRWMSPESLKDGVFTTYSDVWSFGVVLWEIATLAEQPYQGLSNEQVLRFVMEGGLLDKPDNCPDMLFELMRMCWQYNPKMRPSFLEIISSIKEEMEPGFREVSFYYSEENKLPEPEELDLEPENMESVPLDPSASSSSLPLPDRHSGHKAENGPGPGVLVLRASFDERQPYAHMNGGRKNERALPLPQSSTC

IC50 (IGF1R)	GI50 [1]	IC50 (EGFRΔ19del/T790M/C797S)	IC50 (EGFR WT)	IC50 (A431; Homo sapiens, A-431, 72 h)	IC50 (A431)	SMILES
269 nM	23.5 nM	1.3 nM	30.8 nM	578 nM	–	CCc1cc(Nc2ncc(Br)c(Nc3ccc(-c4ccccc4C#N)cc3P(C)(C)=O)n2)c(OC)cc1N1CCC(N2CCN(C)CC2)CC1 [Compound 51, 4′-((5-Bromo-2-((5-ethyl-2-methoxy-4-(4-(4-methylpiperazin-1-yl)piperidin-1-yl)phenyl)amino)pyrimidin-4-yl)amino)-3′-(dimethylphosphoryl)-[1,1′-biphenyl]-2-carbonitrile]
196 nM	40.8 nM	0.4 nM	13.9 nM	–	–	CCc1cc(Nc2ncc(Cl)c(Nc3ccc(-c4nn(C)cc4C#N)cc3P(C)(C)=O)n2)c(OC)cc1N1CCC(N2CCN(C)CC2)CC1 [Compound 57]
–	27.2 nM	–	–	–	> 10000 nM	CCc1cc(Nc2ncc(Br)c(Nc3ccc(-c4ccc(N(C)C)nn4)cc3P(C)(C)=O)n2)c(OC)cc1N1CCC(N2CCN(C)CC2)CC1 [Compound 77, (2-((5-Bromo-2-((5-ethyl-2-methoxy-4-(4-(4-methylpiperazin-1-yl)piperidin-1-yl)phenyl)amino]pyrimidin-4-yl)amino)-5-(6-(dimethylamino)pyridazin-3-yl)phenyl)dimethylphosphine oxide]
54.9 nM	5.8 nM	0.1 nM	–	–	1210 nM	CCc1cc(Nc2ncc(Br)c(Nc3ccc(-c4cnn(C)n4)c(F)c3P(C)(C)=O)n2)c(OC)cc1N1CCC(N2CCN(C)CC2)CC1 [Compound 84, (6-((5-Bromo-2-((5-ethyl-2-methoxy-4-(4-(4-methylpiperazin-1-yl)piperidin-1-yl)phenyl)amino)pyrimidin-4-yl)amino)-2-fluoro-3-(2-methyl-2H-1,2,3-triazol-4-yl)phenyl)dimethylphosphine oxide]
264 nM	44 nM	0.7 nM	66.9 nM	–	–	CCc1cc(Nc2ncc(Cl)c(Nc3ccc(-c4cnc(C)nc4)cc3P(C)(C)=O)n2)c(OC)cc1N1CCC(N2CCN(C)CC2)CC1 [Compound 24, (2-((5-Chloro-2-((5-ethyl-2-methoxy-4-(4-(4-methylpiperazin-1-yl)piperidin-1-yl)phenyl)amino)pyrimidin-4-yl)amino)-5-(2-methylpyrimidin-5-yl)phenyl)dimethylphosphine oxide]
–	29.4 nM	–	–	> 10000 nM	–	CCc1cc(Nc2ncc(Br)c(Nc3ccc(-c4nccnc4OC)cc3P(C)(C)=O)n2)c(OC)cc1N1CCC(N2CCN(C)CC2)CC1 [Compound 72, (2-((5-Bromo-2-((5-ethyl-2-methoxy-4-(4-(4-methylpiperazin-1-yl)piperidin-1-yl)phenyl)(amino)amino]pyrimidin-4-yl)amino)-5-(3-methoxypyrazin-2-yl)phenyl)dimethylphosphine oxide]
–	2.1 nM	–	–	99.6 nM	–	COc1cc(N2CCC(N3CCCCC3)CC2)c(-c2cnn(C)c2)cc1Nc1ncc(Br)c(Nc2ccc(-c3ccccc3)cc2P(C)(C)=O)n1 [Compound K-100]
886 nM	–	2.4 nM	72.5 nM	–	–	CCc1cc(Nc2ncc(Cl)c(Nc3ccc(-c4ccnc5c4ccn5C)cc3P(C)(C)=O)n2)c(OC)cc1N1CCC(N2CCN(C)CC2)CC1 [Compound 56, (2-((5-Chloro-2-((5-ethyl-2-methoxy-4-(4-(4-methylpiperazin-1-yl)piperidin-1-yl)phenyl)amino)pyrimidin-4-yl)amino)-5-(1-methyl-1H-pyrrolo[2,3-b]pyridin-4-yl)phenyl)dimethylphosphine oxide]

Further lines, the molecule ahead of its results:

SMILES	IC50 (IGF1R)	GI50 [1]	IC50 (EGFRΔ19del/T790M/C797S)	IC50 (EGFR WT)	IC50 (A431; Homo sapiens, A-431, 72 h)	IC50 (A431)
CCc1cc(Nc2ncc(Br)c(Nc3ccc(-c4nccs4)cc3P(C)(C)=O)n2)c(OC)cc1N1CCC(N2CCN(C)CC2)CC1 [Compound 12, (2-((5-Bromo-2-((5-ethyl-2-methoxy-4-(4-(4-methylpiperazin-1-yl)piperidin-1-yl)phenyl)amino)pyrimidin-4-yl)amino)-5-(thiazol-2-yl)phenyl)dimethylphosphine oxide]	310 nM	10.7 nM	1.1 nM	13 nM	989 nM	–
CCc1cc(Nc2ncc(Cl)c(Nc3ccc(-c4cncs4)cc3P(C)(C)=O)n2)c(OC)cc1N1CCC(N2CCN(C)CC2)CC1 [Compound 15, (2-((5-Chloro-2-((5-ethyl-2-methoxy-4-(4-(4-methylpiperazin-1-yl)piperidin-1-yl)phenyl)amino)pyrimidin-4-yl)amino)-5-(thiazol-5-yl)phenyl)dimethylphosphine oxide]	66.5 nM	16.1 nM	0.3 nM	–	–	–
CCc1cc(Nc2ncc(Cl)c(Nc3ccc(-c4ccccc4)cc3P(C)(C)=O)n2)c(OC)cc1N1CCC(N2CCN(C)CC2)CC1 [Compound 2, (4-((5-Chloro-2-((5-ethyl-2-methoxy-4-(4-(4-methylpiperazin-1-yl)piperidin-1-yl)phenyl)amino)pyrimidin-4-yl)amino)-[1,1′-biphenyl]-3-yl)dimethylphosphine oxide]	150 nM	21.8 nM	0.7 nM	–	812 nM	–
CCc1cc(Nc2ncc(Cl)c(Nc3ccc(-c4cnn5cnccc45)cc3P(C)(C)=O)n2)c(OC)cc1N1CCC(N2CCN(C)CC2)CC1 [Compound 23, (2-((5-Chloro-2-((5-ethyl-2-methoxy-4-(4-(4-methylpiperazin-1-yl)piperidin-1-yl)phenyl)amino)pyrimidin-4-yl)amino)-5-(pyrazolo[1,5-c]pyrimidin-3-yl)phenyl)dimethylphosphine oxide]	261 nM	42.9 nM	0.5 nM	18.9 nM	–	–
CCc1cc(Nc2ncc(Cl)c(Nc3ccc(-c4cnn5c4OCCC5)cc3P(C)(C)=O)n2)c(OC)cc1N1CCC(N2CCN(C)CC2)CC1 [Compound 7, (2-((5-Chloro-2-((5-ethyl-2-methoxy-4-(4-(4-methylpiperazin-1-yl)piperidin-1-yl)phenyl)amino)pyrimidin-4-yl)amino)-5-(6,7-dihydro-5H-pyrazolo[5,1-b][1,3]nitrox-3-yl)phenyl)dimethylphosphine oxide]	187 nM	46.2 nM	0.5 nM	–	–	–
CCc1cc(Nc2ncc(Br)c(Nc3ccc(-c4nccn4C4CC4)cc3P(C)(C)=O)n2)c(OC)cc1N1CCC(N2CCN(C)CC2)CC1 [Compound 69]	1940 nM	–	4 nM	316 nM	–	–
